Experiments:
Panc3.27 tumor cells = experiment: Cellular assay: Panc3.27 tumor cell proliferation (Cell Titer Glo); type: cell-based; settings: Panc3.27 cells, 72 hour treatment, read-out: PANC proliferation IC50
Procedure: Cellular Assay—Treatment of Panc3.27 Tumor Cells with Dimeric IAP Antagonists
On day one adherent Panc3.27 cells are plated into two 96-well, clear, flat bottom plates. All wells in row A contain 90 uL of media. All wells in rows B-G contain a total volume of 90 uL per well and 4000 cells per well for Panc3.27 cell lines. Plates are then incubated overnight for 18 hours at 37° C., 5% CO2.
On day two cells are treated with the compounds of formula M-L-M′. Treatments are done in triplicate. The compounds are first serially diluted in DMSO and then added to media giving a final concentration of 0.2% DMSO when added to cells. Cells are treated with 10 uL of serially diluted compounds of formula M-L-M′ at a final concentration of 1000 nM, 200 nM, 40 nM, 8 nM, 1.6 nM, 0.32 nM, 0.06 nM, 0.013 nM, 0.0026 nM, and one untreated well. Plate two is used as a time zero plate.
To measure cell viability 50 uL of Cell Titer Glo (CTG) solution is added to row A, media only and B, cells and media. CTG is purchased from Promega Corporation catalog number G7573. The solution is prepared according to manufacturer's instructions. CTG measures the amount of ATP released from viable cells that is proportional to the number of cells in each well. After incubating for ten minutes with CTG plates are measured on a luminescent reader at 700 nm wavelength. Read time is approximately one second per well for a 96-well plate.
On day five 50 uL of CTG is added to plate one, rows A-G, incubated for 10 minutes at room temperature and read on a luminescent reader. Raw data is adjusted to account for the time zero plate as well as background noise. Triplicate values are averaged and percent control growth is calculated. Percent control growth is calculated using the following logical test: If well read data point (a) is greater than time zero data point (t=0), then 100*[(a)−(t=0)]/[(72 hour total growth)−(t=0)], OR 100*[(a)−(t=0)]/[(t=0)]. Data is represented by line graph with the concentration of compound on the x axis and percent control growth on the y axis.

XIAP-BIR3 = molecular target: T1, XIAP-BIR3 (Homo sapiens, UniProt P98170); experiment: Biacore SPR solution inhibition (competition with smac7mer peptide) binding assay, XIAP-BIR3; settings: 100 nM XIAP-BIR3, competition with immobilised smac7mer peptide, 25° C.; read-out: XIAP-BIR3 Binding Biacore (Competitive) EC50
T1 construct: with either 100 nM XIAP-BIR3 or 6 nM cIAP1-BIR3
T1 sequence (P98170 241-356 limits assumed): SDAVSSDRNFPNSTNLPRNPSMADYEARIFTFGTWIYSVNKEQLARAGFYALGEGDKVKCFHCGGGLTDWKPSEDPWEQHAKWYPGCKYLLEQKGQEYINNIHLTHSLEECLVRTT
Source text: (§1) The present method includes utility of a Surface plasmon resonance (SPR)-based biosensor (Biacore™ GE Healthcare, Uppsala, Sweden) to examine competition between the compounds of the present invention and smac7mer peptide for XIAP-BIR3 and cIAP1-BIR3 binding groove occupancy.
(§2) Biacore™ utilizes the phenomenon of surface plasmon resonance (SPR) to detect and measure binding interactions. In a typical Biacore experiment, one of the interacting molecules is immobilized on a flexible dextran matrix while the interacting partner is flowed over the derivatized surface. A binding interaction results in an increase in mass on the sensor surface and a corresponding direct change in the refractive index of the medium in the vicinity of the sensor surface. Changes in refractive index or signal are recorded in resonance units (R.U.) Signal changes due to association and dissociation of complexes are monitored in a non-invasive manner, continuously and in real-time, the results of which are reported in the form of a sensorgram.
(§3) Solution Inhibition Assay Format:
(§4) Biacore™ T100 (GE Healthcare, Uppsala, Sweden) was used to conduct all experiments reported herein. Sensor surface preparation and interaction analyses were performed at 25° C. Buffer and Biacore reagents were purchased from GE Healthcare. Running buffer containing 10 mM Hepes, pH7.4, 150 mM sodium chloride, 1.25 mM Dithiothreitol, 2% Dimethyl sulfoxide and 0.05% polysorbate 20 was utilized throughout all experiments.
(§5) Biotinylated smac7mer peptide was diluted to 10 nM in running buffer and captured onto a sensor surface pre-derivatized with streptavidin (sensor chip SA) towards peptide surface densities in the range 40-100 R.U. Peptide captured surfaces were blocked with 500 μM PEO2-Biotin (Thermo Scientific).
(§6) Interaction analyses were performed by first equilibrating each compound within a six point seven fold compound dilution series in the range 1 μM to 0.06 nM with either 100 nM XIAP-BIR3 or 6 nM cIAP1-BIR3 for at least one hour during instrument start-up procedures. Protein compound mixtures were then injected over reference and smac7mer peptide surfaces in series for 60 seconds at a flow-rate of 60 μL/min. Surface regeneration was performed at the end of each analysis cycle by a 30 second injection of 10 mM Glycine, pH 2.5, 1M Sodium Chloride, 0.05% polysorbate 20. Additionally, control compound samples and control XIAP-BIR3 or cIAP1-BIR3 samples were prepared and run at regular intervals to monitor surface and assay performance.
(§7) Data analyses were carried out using Biacore™ T100 evaluation software v2.0 to validate assay quality. Binding level report points were plotted versus logarithmic compound concentration values and analyzed in Graphpad prism 5 via non-linear regression using a one-site competition model. EC50 values were generated and used as a measure of inhibitor potency.

cIAP1-BIR3 = molecular target: T2, cIAP1-BIR3 (Homo sapiens, UniProt Q13490); experiment: Biacore SPR solution inhibition (competition with smac7mer peptide) binding assay, cIAP1-BIR3; settings: 6 nM cIAP1-BIR3, competition with immobilised smac7mer peptide, 25° C.; read-out: CIAP-BIR3 Binding Biacore (Competitive) EC50
T2 construct: with either 100 nM XIAP-BIR3 or 6 nM cIAP1-BIR3
T2 sequence (Q13490 260-352 limits assumed): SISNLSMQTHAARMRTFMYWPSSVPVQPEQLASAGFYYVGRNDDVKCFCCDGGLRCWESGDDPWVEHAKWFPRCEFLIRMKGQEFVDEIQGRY
Source text: as §1, §2, §3, §4, §5, §6, §7

IC50 (Panc3.27 tumor cells)	EC50 (XIAP-BIR3)	EC50 (cIAP1-BIR3)	Structure (SMILES)
0.02 to 0.21 nM	51.2 to 59.4 nM	0.51 to 1.04 nM	CN[C@@H](C)C(=O)N[C@H](C(=O)N1CCC[C@H]1c1cncc(-n2cc(C(=O)NCCCOCCOCCOCCOCCOCCCNC(=O)c3cn(-c4cncc([C@@H]5CCCN5C(=O)[C@@H](NC(=O)[C@H](C)NC)C(C)C)c4)c4ccccc34)c3ccccc32)c1)C(C)C [Example 2B, (S,S,S)—N,N′-(4,7,10,13,16-pentaoxanonadecane-1,19-diyl)bis(1-(5-((S)-1-((S)-3-methyl-2-((S)-2-(methylamino)propanamido)butanoyl)pyrrolidin-2-yl)pyridin-3-yl)-1H-indole-3-carboxamide)]
0.1 to 0.27 nM	42 to 79.9 nM	0.97 to 0.98 nM	CN[C@@H](C)C(=O)N[C@H](C(=O)N1CCC[C@H]1c1cncc(-n2cc(C(=O)NCCCOCCOCCOCCCNC(=O)c3cn(-c4cncc([C@@H]5CCCN5C(=O)[C@@H](NC(=O)[C@H](C)NC)C(C)C)c4)c4ccccc34)c3ccccc32)c1)C(C)C [Example 2C, (S,S,S)—N,N′-(3,3′-(2,2′-oxybis(ethane-2,1-diyl)bis(oxy))bis(propane-3,1-diyl))bis(1-(5-((S)-1-((S)-3-methyl-2-((S)-2-(methylamino)propanamido)-butanoyl)pyrrolidin-2-yl)pyridin-3-yl)-1H-indole-3-carboxamide)]
0.26 to 0.44 nM	47 to 54 nM	0.52 to 1.83 nM	CN[C@@H](C)C(=O)N[C@H](C(=O)N1CCC[C@H]1c1cncc(-n2cc(C(=O)NCCCOCCOCCCNC(=O)c3cn(-c4cncc([C@@H]5CCCN5C(=O)[C@@H](NC(=O)[C@H](C)NC)C(C)C)c4)c4ccccc34)c3ccccc32)c1)C(C)C [Example 2E, (S,S,S)—N,N′-(3,3′-(ethane-1,2-diylbis(oxy))bis(propane-3,1-diyl))bis(1-(5-((S)-1-((S)-3-methyl-2-((S)-2-(methylamino)propanamido)butanoyl)pyrrolidin-2-yl)pyridin-3-yl)-1H-indole-3-carboxamide)]
0.18 to 1.21 nM	19.7 to 20.8 nM	0.5 to 0.51 nM	CN[C@@H](C)C(=O)N[C@H](C(=O)N1CCC[C@H]1c1cncc(-n2cc(C(=O)NCCCOCCCNC(=O)c3cn(-c4cncc([C@@H]5CCCN5C(=O)[C@@H](NC(=O)[C@H](C)NC)C(C)C)c4)c4ccccc34)c3ccccc32)c1)C(C)C [Example 2I]

Continued, compound first:

Structure (SMILES)	IC50 (Panc3.27 tumor cells)	EC50 (XIAP-BIR3)	EC50 (cIAP1-BIR3)
CN[C@@H](C)C(=O)N[C@H](C(=O)N1CCC[C@H]1c1cncc(-n2ccc3c(C(=O)NCc4ccc(CNC(=O)c5cccc6c5ccn6-c5cncc([C@@H]6CCCN6C(=O)[C@@H](NC(=O)[C@H](C)NC)C(C)C)c5)cc4)cccc32)c1)C(C)C [Example 1B, (S,S,S)—N,N′-(1,4-phenylenebis(methylene))bis(1-(5-((S)-1-((S)-3-methyl-2-((S)-2-(methylamino)propanamido)butanoyl)pyrrolidin-2-yl)pyridin-3-yl)-1H-indole-4-carboxamide)]	< 0.0026 nM	56.8 to 57 nM	1.22 to 1.23 nM
CN[C@@H](C)C(=O)N[C@H](C(=O)N1CCC[C@H]1c1cncc(-n2ccc3c(C(=O)NCCCNC(=O)c4cccc5c4ccn5-c4cncc([C@@H]5CCCN5C(=O)[C@@H](NC(=O)[C@H](C)NC)C(C)C)c4)cccc32)c1)C(C)C [Example 1C, (S,S,S)—N,N′-(propane-1,3-diyl)bis(1-(5-((S)-1-((S)-3-methyl-2-((S)-2-(methylamino)propanamido)butanol)pyrrolidin-2-yl)pyridin-3-yl)-1H-indole-4-carboxamide)]	0.0026 to 0.14 nM	70.7 to 71.3 nM	1.66 to 1.71 nM
CN[C@@H](C)C(=O)N[C@H](C(=O)N1CCC[C@H]1c1cncc(-n2ccc3c(C(=O)N[C@H]4CCCC[C@@H]4NC(=O)c4cccc5c4ccn5-c4cncc([C@@H]5CCCN5C(=O)[C@@H](NC(=O)[C@H](C)NC)C(C)C)c4)cccc32)c1)C(C)C [Example 1D, (S,S,S)—N,N′-((1S,2S)-cyclohexane-1,2-diyl)bis(1-(5-((S)-1-((S)-3-methyl-2-((S)-2-(methylamino)propanamido)butanoyl)pyrrolidin-2-yl)pyridin-3-yl)-1H-indole-4-carboxamide)]	2.61 to 2.75 nM	76 to 76.7 nM	1.2 to 1.22 nM
CN[C@@H](C)C(=O)N[C@H](C(=O)N1CCC[C@H]1c1cncc(-n2cc(C(=O)NCCNC(=O)c3cn(-c4cncc([C@@H]5CCCN5C(=O)[C@@H](NC(=O)[C@H](C)NC)C(C)C)c4)c4ccccc34)c3ccccc32)c1)C(C)C [Example 2F, (S,S,S)—N,N′-(ethane-1,2-diyl)bis(1-(5-((S)-1-((S)-3-methyl-2-((S)-2-(methylamino)propanamido)butanoyl)pyrrolidin-2-yl)pyridin-3-yl)-1H-indole-3-carboxamide)]	0.08 to 0.28 nM	23.5 to 55.2 nM	0.21 to 0.86 nM
CN[C@@H](C)C(=O)N[C@H](C(=O)N1CCC[C@H]1c1cncc(-n2cc(C(=O)NCc3ccc(-c4ccc(CNC(=O)c5cn(-c6cncc([C@@H]7CCCN7C(=O)[C@@H](NC(=O)[C@H](C)NC)C(C)C)c6)c6ccccc56)cc4)cc3)c3ccccc32)c1)C(C)C [Example 2G, (S,S,S)—N,N′-(biphenyl-4,4′-diylbis(methylene))bis(1-(5-((S)-1-((S)-3-methyl-2-((S)-2-(methylamino)propanamido)butanoyl)pyrrolidin-2-yl)pyridin-3-yl)-1H-indole-3-carboxamide)]	< 0.0026 nM	47.9 to 51.6 nM	2.24 to 2.27 nM
CN[C@@H](C)C(=O)N[C@H](C(=O)N1CCC[C@H]1c1cncc(-n2cc(C(=O)NCCCCCCCCCCCNC(=O)c3cn(-c4cncc([C@@H]5CCCN5C(=O)[C@@H](NC(=O)[C@H](C)NC)C(C)C)c4)c4ccccc34)c3ccccc32)c1)C(C)C [Example 2H, (S,S,S)—N,N′-(undecane-1,11-diyl)bis(1-(5-((S)-1-((S)-3-methyl-2-((S)-2-(methylamino)propanamido)butanoyl)pyrrolidin-2-yl)pyridin-3-yl)-1H-indole-3-carboxamide)]	< 0.0026 nM	60.3 to 60.8 nM	1 to 1.02 nM
CN[C@@H](C)C(=O)N[C@H](C(=O)N1CCC[C@H]1c1cncc(-n2cc(C(=O)NCCCCNC(=O)c3cn(-c4cncc([C@@H]5CCCN5C(=O)[C@@H](NC(=O)[C@H](C)NC)C(C)C)c4)c4ccccc34)c3ccccc32)c1)C(C)C [Example 2J, (S,S,S)—N,N′-(butane-1,4-diyl)bis(1-(5-((S)-1-((S)-3-methyl-2-((S)-2-(methylamino)propanamido)butanol)pyrrolidin-2-yl)pyridin-3-yl)-1H-indole-3-carboxamide)]	0.18 to 1.21 nM	19.3 to 19.5 nM	1.13 to 1.15 nM

Reference: patent US8993523B2, “Dimeric IAP inhibitors” (Novartis AG, priority 2010, dated 2015)
